Data published in patent US20240391931A1 (Bristol-Myers Squibb Company, priority 2021, published 2024).

Assays:
HER2YVMA = HER2YVMA (Homo sapiens, UniProt P04626, INS775YVMA); assay: Enzymatic assay HER2YVMA (method b); type: biochemical; set-up: purchased Viva biotech, Shanghai, China custom purification; details: [HER2YVMA]=5 nM, [ATP]=25 μM, [Peptide 22]=1 μM
How it was run: (§1)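 Initial rates over 0–3600 s, read as substrate-to-product conversion by capillary electrophoresis, were converted to percent inhibition and fitted with a variable-slope curve to give IC50. Conditions: EGFR WT 2 nM with 1 mM ATP; HER2 YVMA 5 nM or HER2 WT 12.5 nM, each with 25 μM ATP. All used 1 μM Peptide 22 in pH 7.5 HEPES/Mn/Mg buffer.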

HER2 WT = target: T1, HER2 WT (Homo sapiens, UniProt P04626); assay: Enzymatic assay HER2 WT (method a); type: biochemical; details: [HER2 WT]=12.5 nM, [ATP]=25 μM, [Peptide 22]=1 μM
T1 construct: purchased ProQinase, Freiburg, Germany ERBB2 0108-0000-1
How it was run: as §1

EGFR = EGFR (Homo sapiens, UniProt P00533); assay: EGFR signaling (pEGFR Tyr1068/total EGFR MSD) in A431 cells; type: cell-based; set-up: endogenous in cells; host or cells: A431, N87; details: for EC50: A431 cells, read-out: A431 pEGFR EC50; for Selectivity A431 EC50/BT474 EC50: ratio A431 pEGFR EC50 to BT474 pHER2 EC50; for Selectivity A431 EC50/HEKYVMA EC50: ratio A431 pEGFR EC50 to HEK YVMA pHER2 EC50
How it was run: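 EC50 was fitted with variable Hill slope from MSD pTyr1068/total EGFR ratios, expressed as % DMSO control. A431 cells were starved overnight, then exposed 1.5 h to eight concentrations from 10 to 0.005 μM in 1% FBS before a 10-min 100 ng/mL EGF pulse.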

T1 sequence (P04626 23-1255): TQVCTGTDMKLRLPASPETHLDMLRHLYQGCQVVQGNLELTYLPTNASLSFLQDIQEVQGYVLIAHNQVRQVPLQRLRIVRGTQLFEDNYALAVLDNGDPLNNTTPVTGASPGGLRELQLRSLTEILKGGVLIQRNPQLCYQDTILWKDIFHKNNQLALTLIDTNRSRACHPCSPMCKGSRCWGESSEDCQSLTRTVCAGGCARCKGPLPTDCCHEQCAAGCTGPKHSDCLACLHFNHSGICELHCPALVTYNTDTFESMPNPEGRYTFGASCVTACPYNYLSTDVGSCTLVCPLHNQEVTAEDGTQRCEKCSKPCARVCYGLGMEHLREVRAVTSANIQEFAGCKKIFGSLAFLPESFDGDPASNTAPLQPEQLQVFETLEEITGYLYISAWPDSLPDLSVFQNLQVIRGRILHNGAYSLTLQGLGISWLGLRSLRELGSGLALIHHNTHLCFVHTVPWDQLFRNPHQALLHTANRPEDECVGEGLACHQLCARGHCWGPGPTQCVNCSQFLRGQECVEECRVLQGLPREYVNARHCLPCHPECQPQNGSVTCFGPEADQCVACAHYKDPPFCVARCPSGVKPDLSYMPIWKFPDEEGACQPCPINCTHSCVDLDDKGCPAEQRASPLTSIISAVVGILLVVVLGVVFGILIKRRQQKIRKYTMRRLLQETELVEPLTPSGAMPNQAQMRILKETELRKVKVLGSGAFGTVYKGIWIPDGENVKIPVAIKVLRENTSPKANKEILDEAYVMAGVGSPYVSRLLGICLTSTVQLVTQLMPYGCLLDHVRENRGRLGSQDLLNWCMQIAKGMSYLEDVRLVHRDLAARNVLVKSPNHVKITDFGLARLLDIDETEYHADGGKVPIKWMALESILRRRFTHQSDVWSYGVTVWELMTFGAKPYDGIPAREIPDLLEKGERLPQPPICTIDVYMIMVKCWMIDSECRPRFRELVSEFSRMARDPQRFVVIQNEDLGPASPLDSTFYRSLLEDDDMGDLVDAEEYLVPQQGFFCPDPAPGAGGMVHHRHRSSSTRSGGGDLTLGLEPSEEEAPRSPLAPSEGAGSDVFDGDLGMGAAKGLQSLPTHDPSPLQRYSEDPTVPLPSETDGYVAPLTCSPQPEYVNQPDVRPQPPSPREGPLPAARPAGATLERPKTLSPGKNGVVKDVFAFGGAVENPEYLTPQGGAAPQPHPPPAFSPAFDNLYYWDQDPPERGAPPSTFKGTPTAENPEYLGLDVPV
Chain of HER2YVMA (P04626 with tags, fused parts or gaps INS775YVMA): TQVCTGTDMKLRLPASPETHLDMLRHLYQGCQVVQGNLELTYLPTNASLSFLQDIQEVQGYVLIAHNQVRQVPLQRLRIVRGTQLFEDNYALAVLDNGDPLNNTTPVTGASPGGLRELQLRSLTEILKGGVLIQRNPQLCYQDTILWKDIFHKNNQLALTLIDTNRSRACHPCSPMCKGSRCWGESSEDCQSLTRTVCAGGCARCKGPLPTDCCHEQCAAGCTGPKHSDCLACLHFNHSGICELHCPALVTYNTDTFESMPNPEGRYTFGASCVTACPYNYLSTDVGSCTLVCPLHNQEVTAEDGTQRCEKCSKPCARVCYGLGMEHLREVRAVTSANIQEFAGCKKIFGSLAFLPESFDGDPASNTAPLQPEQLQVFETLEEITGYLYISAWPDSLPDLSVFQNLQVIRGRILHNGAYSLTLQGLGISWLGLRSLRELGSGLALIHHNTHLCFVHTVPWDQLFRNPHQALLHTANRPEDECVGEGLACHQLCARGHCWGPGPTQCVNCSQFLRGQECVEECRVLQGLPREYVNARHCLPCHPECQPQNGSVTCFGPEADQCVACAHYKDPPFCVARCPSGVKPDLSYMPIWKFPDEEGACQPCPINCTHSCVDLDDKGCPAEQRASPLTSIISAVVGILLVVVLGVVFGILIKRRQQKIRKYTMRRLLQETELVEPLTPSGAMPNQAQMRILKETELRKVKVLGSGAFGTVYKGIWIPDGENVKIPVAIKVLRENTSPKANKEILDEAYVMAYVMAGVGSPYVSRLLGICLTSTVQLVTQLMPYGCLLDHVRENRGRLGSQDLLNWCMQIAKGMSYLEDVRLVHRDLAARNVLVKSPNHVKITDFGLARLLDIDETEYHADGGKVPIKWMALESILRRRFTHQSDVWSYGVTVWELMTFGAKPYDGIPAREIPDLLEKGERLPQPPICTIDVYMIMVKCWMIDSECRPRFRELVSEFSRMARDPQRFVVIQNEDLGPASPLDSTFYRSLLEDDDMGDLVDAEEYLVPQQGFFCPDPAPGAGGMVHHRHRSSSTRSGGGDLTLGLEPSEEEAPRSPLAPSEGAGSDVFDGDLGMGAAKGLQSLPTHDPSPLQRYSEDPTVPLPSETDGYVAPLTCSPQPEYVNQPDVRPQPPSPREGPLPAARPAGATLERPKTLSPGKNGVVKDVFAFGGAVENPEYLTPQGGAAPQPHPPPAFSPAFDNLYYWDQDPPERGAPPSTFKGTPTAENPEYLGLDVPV
Chain of EGFR (P00533 25-1210): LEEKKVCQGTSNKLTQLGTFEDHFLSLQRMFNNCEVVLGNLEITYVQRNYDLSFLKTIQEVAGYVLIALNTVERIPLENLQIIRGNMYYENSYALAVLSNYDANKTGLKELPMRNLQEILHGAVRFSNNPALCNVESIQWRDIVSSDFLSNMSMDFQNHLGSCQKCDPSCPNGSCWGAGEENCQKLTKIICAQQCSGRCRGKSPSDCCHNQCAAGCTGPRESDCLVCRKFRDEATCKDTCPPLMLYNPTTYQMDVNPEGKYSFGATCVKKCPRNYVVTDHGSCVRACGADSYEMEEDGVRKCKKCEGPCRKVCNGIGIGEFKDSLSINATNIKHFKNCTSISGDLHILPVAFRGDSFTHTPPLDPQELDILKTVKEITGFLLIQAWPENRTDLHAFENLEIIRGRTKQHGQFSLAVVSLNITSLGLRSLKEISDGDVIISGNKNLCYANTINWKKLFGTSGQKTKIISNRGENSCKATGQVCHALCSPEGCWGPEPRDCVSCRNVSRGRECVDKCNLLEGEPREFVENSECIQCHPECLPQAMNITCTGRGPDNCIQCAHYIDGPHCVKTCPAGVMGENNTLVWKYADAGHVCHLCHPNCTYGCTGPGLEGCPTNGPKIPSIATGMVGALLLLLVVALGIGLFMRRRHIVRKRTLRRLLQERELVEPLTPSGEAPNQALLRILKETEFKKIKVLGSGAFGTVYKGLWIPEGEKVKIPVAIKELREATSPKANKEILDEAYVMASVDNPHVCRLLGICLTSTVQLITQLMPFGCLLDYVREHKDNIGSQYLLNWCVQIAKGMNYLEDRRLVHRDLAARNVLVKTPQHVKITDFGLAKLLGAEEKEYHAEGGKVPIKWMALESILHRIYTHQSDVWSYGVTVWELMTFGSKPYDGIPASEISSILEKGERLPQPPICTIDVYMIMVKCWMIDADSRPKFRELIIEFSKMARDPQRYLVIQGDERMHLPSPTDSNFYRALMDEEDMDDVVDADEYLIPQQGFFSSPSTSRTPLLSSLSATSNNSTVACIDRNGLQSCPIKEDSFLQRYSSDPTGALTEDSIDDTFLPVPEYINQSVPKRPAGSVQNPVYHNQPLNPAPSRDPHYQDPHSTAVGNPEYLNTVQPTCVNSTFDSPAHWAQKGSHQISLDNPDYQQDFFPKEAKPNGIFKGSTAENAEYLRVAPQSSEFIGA

SMILES: Cc1cc(Nc2ncnc3sc4c(c23)CCN(C(=O)/C=C/CN2CC(C)OC(C)C2C)C4)ccc1Oc1ccc2ncnn2c1 (centres unmarked) [Compound 83]
- IC50 (HER2YVMA): 100 to 1000 nM
- IC50 (HER2 WT): 100 to 1000 nM
- EC50 (EGFR): 1000 to 10000 nM
- Selectivity A431 EC50/BT474 EC50 (EGFR): A (A: ≥100)
- Selectivity A431 EC50/HEKYVMA EC50 (EGFR): B (B: ≥ 20 and < 100)

SMILES: Cc1cc(Nc2ncnc3sc4c(c23)CCN(C(=O)/C=C/CN2CC(C)(C)OC(C)(C)C2)C4)ccc1Oc1ccc2ncnn2c1 [Compound 84]
- IC50 (HER2YVMA): 100 to 1000 nM
- IC50 (HER2 WT): 100 to 1000 nM
- EC50 (EGFR): > 10000 nM
- Selectivity A431 EC50/BT474 EC50 (EGFR): A (A: ≥100)
- Selectivity A431 EC50/HEKYVMA EC50 (EGFR): B (B: ≥ 20 and < 100)

SMILES: O=C(/C=C/CN1CC2CC(C2)C1)N1CCc2c(sc3ncnc(Nc4ccc(Oc5ccc6ncnn6c5)c(Cl)c4)c23)C1 [Compound 85]
- IC50 (HER2YVMA): < 100 nM
- IC50 (HER2 WT): < 100 nM
- EC50 (EGFR): 100 to 1000 nM
- Selectivity A431 EC50/BT474 EC50 (EGFR): C (C: ≥ 10 and < 20)
- Selectivity A431 EC50/HEKYVMA EC50 (EGFR): C (C: ≥ 10 and < 20)

SMILES: C=C(CN1CCc2c(sc3ncnc(Nc4ccc(Oc5ccc(C)nc5)c(C)c4)c23)C1)C(=O)OCC [Compound 86, Ethyl 2-((4-((3-methyl-4-((6-methylpyridin-3-yl)oxy)phenyl)amino)-5,8-dihydropyrido[4′,3′:4,5]thieno[2,3-d]pyrimidin-7(6H)-yl)methyl)acrylate]
- IC50 (HER2YVMA): 1000 to 10000 nM
- IC50 (HER2 WT): 100 to 1000 nM
- EC50 (EGFR): > 10000 nM
- Selectivity A431 EC50/BT474 EC50 (EGFR): B (B: ≥ 20 and < 100)
- Selectivity A431 EC50/HEKYVMA EC50 (EGFR): A (A: ≥100)

SMILES: O=C(/C=C/CN1CC2CC1CO2)N1CCc2c(sc3ncnc(Nc4ccc(Oc5ccc6ncnn6c5)c(Cl)c4)c23)C1 (centres unmarked) [Compound 87]
- IC50 (HER2YVMA): < 100 nM
- IC50 (HER2 WT): < 100 nM
- EC50 (EGFR): < 100 nM
- Selectivity A431 EC50/BT474 EC50 (EGFR): B (B: ≥ 20 and < 100)
- Selectivity A431 EC50/HEKYVMA EC50 (EGFR): D (D: ≥ 5 and < 10)

SMILES: O=C(/C=C/CN1CC2CCC(C2)C1)N1CCc2c(sc3ncnc(Nc4ccc(Oc5ccc6ncnn6c5)c(Cl)c4)c23)C1 [Compound 88]
- IC50 (HER2YVMA): < 100 nM
- IC50 (HER2 WT): < 100 nM
- EC50 (EGFR): < 100 nM
- Selectivity A431 EC50/BT474 EC50 (EGFR): C (C: ≥ 10 and < 20)
- Selectivity A431 EC50/HEKYVMA EC50 (EGFR): C (C: ≥ 10 and < 20)

SMILES: CN(C/C=C/C(=O)N1CCc2c(sc3ncnc(Nc4ccc(Oc5ccc6ncnn6c5)c(Cl)c4)c23)C1)C(C)(C)C [Compound 91]
- IC50 (HER2YVMA): < 100 nM
- IC50 (HER2 WT): < 100 nM
- EC50 (EGFR): < 100 nM
- Selectivity A431 EC50/BT474 EC50 (EGFR): C (C: ≥ 10 and < 20)
- Selectivity A431 EC50/HEKYVMA EC50 (EGFR): D (D: ≥ 5 and < 10)

SMILES: O=C(/C=C/CN1CC2C(CO)C2C1)N1CCc2c(sc3ncnc(Nc4ccc(Oc5ccc6ncnn6c5)c(Cl)c4)c23)C1 (centres unmarked) [Compound 92]
- IC50 (HER2YVMA): < 100 nM
- IC50 (HER2 WT): < 100 nM
- EC50 (EGFR): < 100 nM
- Selectivity A431 EC50/BT474 EC50 (EGFR): C (C: ≥ 10 and < 20)
- Selectivity A431 EC50/HEKYVMA EC50 (EGFR): C (C: ≥ 10 and < 20)

SMILES: C=CC(=O)N1CCc2[nH]c3ncnc(Nc4ccc(Oc5ccc(C)nc5)c(C)c4)c3c2C1 [Compound 94, 1-(4-((3-methyl-4-((6-methylpyridin-3-yl)oxy)phenyl)amino)-7,8-dihydro-5H-pyrido[3′,4′:4,5]pyrrolo[2,3-d]pyrimidin-6(9H)-yl)prop-2-en-1-one]
- IC50 (HER2YVMA): < 100 nM
- IC50 (HER2 WT): < 100 nM
- EC50 (EGFR): 100 to 1000 nM
- Selectivity A431 EC50/BT474 EC50 (EGFR): C (C: ≥ 10 and < 20)
- Selectivity A431 EC50/HEKYVMA EC50 (EGFR): E (E: >1 and < 5)

SMILES: COc1ccc(Oc2ccc(Nc3ncnc4sc5c(c34)CCN(C(=O)/C=C/CN(C)C)C5)cc2C)cn1 [Compound 95, (E)-4-(Dimethylamino)-1-(4-((4-((6-methoxypyridin-3-yl)oxy)-3-methylphenyl)amino)-5,6-dihydropyrido[4′,3′:4,5]thieno[2,3-d]pyrimidin-7(8H)-yl)but-2-en-1-one]
- IC50 (HER2YVMA): < 100 nM
- IC50 (HER2 WT): < 100 nM
- EC50 (EGFR): 100 to 1000 nM
- Selectivity A431 EC50/BT474 EC50 (EGFR): D (D: ≥ 5 and < 10)
- Selectivity A431 EC50/HEKYVMA EC50 (EGFR): C (C: ≥ 10 and < 20)

SMILES: CCOC/C=C/C(=O)N1CCc2c(sc3ncnc(Nc4ccc(Oc5ccc(C)nc5)c(C)c4)c23)C1 [Compound 96, (E)-4-ethoxy-1-(4-((3-methyl-4-((6-methylpyridin-3-yl)oxy)phenyl)amino)-5,8-dihydropyrido[4′,3′:4,5]thieno[2,3-d]pyrimidin-7(6H)-yl)but-2-en-1-one]
- IC50 (HER2YVMA): < 100 nM
- IC50 (HER2 WT): < 100 nM
- EC50 (EGFR): 100 to 1000 nM
- Selectivity A431 EC50/BT474 EC50 (EGFR): C (C: ≥ 10 and < 20)
- Selectivity A431 EC50/HEKYVMA EC50 (EGFR): D (D: ≥ 5 and < 10)

SMILES: Cc1ccc(Oc2ccc(Nc3ncnc4[nH]c5c(c34)CN(C(=O)/C=C/CN(C)C)CC5)cc2C)cn1 [Compound 97, (E)-4-(dimethylamino)-1-(4-((3-methyl-4-((6-methylpyridin-3-yl)oxy)phenyl)amino)-5,7,8,9-tetrahydro-6H-pyrido[3′,4′:4,5]pyrrolo[2,3-d]pyrimidin-6-yl)but-2-en-1-one]
- IC50 (HER2YVMA): < 100 nM
- IC50 (HER2 WT): < 100 nM
- EC50 (EGFR): 100 to 1000 nM
- Selectivity A431 EC50/BT474 EC50 (EGFR): B (B: ≥ 20 and < 100)
- Selectivity A431 EC50/HEKYVMA EC50 (EGFR): E (E: >1 and < 5)

SMILES: Cc1ccc(Oc2ccc(Nc3ncnc4sc5c(c34)C(C)CN(C(=O)/C=C/CN(C)C)C5)cc2C)cn1 (centres unmarked) [Compound 98, (E)-4-(dimethylamino)-1-(5-methyl-4-((3-methyl-4-((6-methylpyridin-3-yl)oxy)phenyl)amino)-5,8-dihydropyrido[4′,3′:4,5]thieno[2,3-d]pyrimidin-7(6H)-yl)but-2-en-1-one]
- IC50 (HER2YVMA): < 100 nM
- IC50 (HER2 WT): < 100 nM
- EC50 (EGFR): 100 to 1000 nM
- Selectivity A431 EC50/BT474 EC50 (EGFR): C (C: ≥ 10 and < 20)
- Selectivity A431 EC50/HEKYVMA EC50 (EGFR): D (D: ≥ 5 and < 10)

SMILES: Cc1ccc(Oc2ccc(Nc3ncnc4sc5c(c34)CN(C(=O)/C=C/CN(C)C)C5)cc2C)cn1 [Compound 99, (E)-4-(dimethylamino)-1-(4-((3-methyl-4-((6-methylpyridin-3-yl)oxy)phenyl)amino)-5,7-dihydro-6H-pyrrolo[3′,4′:4,5]thieno[2,3-d]pyrimidin-6-yl)but-2-en-1-one]
- IC50 (HER2YVMA): < 100 nM
- IC50 (HER2 WT): 100 to 1000 nM
- EC50 (EGFR): 100 to 1000 nM
- Selectivity A431 EC50/BT474 EC50 (EGFR): B (B: ≥ 20 and < 100)
- Selectivity A431 EC50/HEKYVMA EC50 (EGFR): B (B: ≥ 20 and < 100)

SMILES: Cc1ccc(Oc2ccc(Nc3ncnc4sc5c(c34)CCN(C(=O)/C=C/CN(C)C)CC5)cc2C)cn1 [Compound 100, (E)-4-(dimethylamino)-1-(4-((3-methyl-4-((6-methylpyridin-3-yl)oxy)phenyl)amino)-8,9-dihydro-5H-pyrimido[5′,4′:4,5]thieno[2,3-d]azepin-7(6H)-yl)but-2-en-1-one]
- IC50 (HER2YVMA): 100 to 1000 nM
- IC50 (HER2 WT): 100 to 1000 nM
- EC50 (EGFR): 100 to 1000 nM
- Selectivity A431 EC50/BT474 EC50 (EGFR): B (B: ≥ 20 and < 100)
- Selectivity A431 EC50/HEKYVMA EC50 (EGFR): C (C: ≥ 10 and < 20)

SMILES: Cc1ccc(Oc2ccc(Nc3ncnc4sc5c(c34)CCCN(C(=O)/C=C/CN(C)C)C5)cc2C)cn1 [Compound 101, (E)-4-(Dimethylamino)-1-(4-((3-methyl-4-((6-methylpyridin-3-yl)oxy)phenyl)amino)-6,7-dihydro-5H-pyrimido[5′,4′:4,5]thieno[2,3-c]azepin-8(9H)-yl)but-2-en-1-one]
- IC50 (HER2YVMA): < 100 nM
- IC50 (HER2 WT): < 100 nM
- EC50 (EGFR): 100 to 1000 nM
- Selectivity A431 EC50/BT474 EC50 (EGFR): C (C: ≥ 10 and < 20)
- Selectivity A431 EC50/HEKYVMA EC50 (EGFR): C (C: ≥ 10 and < 20)

SMILES: C=CC(=O)N1CCc2[nH]c3ncnc(Nc4ccc(Oc5ccc6ncnn6c5)c(C)c4)c3c2C1 [Compound 102, 1-(4-((4-([1,2,4]triazolo[1,5-a]pyridin-6-yloxy)-3-methylphenyl)amino)-5,7,8,9-tetrahydro-6H-pyrido[3′,4′:4,5]pyrrolo[2,3-d]pyrimidin-6-yl)prop-2-en-1-one]
- IC50 (HER2YVMA): < 100 nM
- IC50 (HER2 WT): < 100 nM
- EC50 (EGFR): 1000 to 10000 nM
- Selectivity A431 EC50/BT474 EC50 (EGFR): C (C: ≥ 10 and < 20)
- Selectivity A431 EC50/HEKYVMA EC50 (EGFR): C (C: ≥ 10 and < 20)

SMILES: Cc1cc(Nc2ncnc3sc4c(c23)CN(C(=O)/C=C/CN(C)C)CC4)ccc1Oc1ccc2ncnn2c1 [Compound 103, (E)-1-(4-((4-([1,2,4]triazolo[1,5-a]pyridin-6-yloxy)-3-methylphenyl)amino)-7,8-dihydropyrido[3′,4′:4,5]thieno[2,3-d]pyrimidin-6(5H)-yl)-4-(dimethylamino)but-2-en-1-one]
- IC50 (HER2YVMA): < 100 nM
- IC50 (HER2 WT): 100 to 1000 nM
- EC50 (EGFR): 100 to 1000 nM
- Selectivity A431 EC50/BT474 EC50 (EGFR): B (B: ≥ 20 and < 100)
- Selectivity A431 EC50/HEKYVMA EC50 (EGFR): B (B: ≥ 20 and < 100)

SMILES: Cc1cc(Nc2ncnc3sc4c(c23)CCN(C(=O)/C=C/CN(C)C)C4)ccc1Oc1ccc2nonc2c1 [Compound 104, (E)-1-(4-((4-(Benzo[c][1,2,5]oxadiazol-5-yloxy)-3-methylphenyl)amino)-5,6-dihydropyrido[4′,3′:4,5]thieno[2,3-d]pyrimidin-7(8H)-yl)-4-(dimethylamino)but-2-en-1-one]
- IC50 (HER2YVMA): < 100 nM
- IC50 (HER2 WT): < 100 nM
- EC50 (EGFR): < 100 nM
- Selectivity A431 EC50/BT474 EC50 (EGFR): D (D: ≥ 5 and < 10)
- Selectivity A431 EC50/HEKYVMA EC50 (EGFR): D (D: ≥ 5 and < 10)
